Assay results taken from BindingDB's records for doi:10.1021/jm00114a015 (National Institute of Diabetes and Digestive and Kidney …, 1991).

Assays:
[1] = Compound was tested for the inhibitory activity against Sigma opioid receptor by using [3H](+)-3-PPP as radioligand in guinea pig brain
[2] = as above; remark: listed apart in the source

SMILES	Ki [1]	Ki [2]
CCN(CCc1ccc(Cl)c(Cl)c1)[C@@H]1CCCC[C@@H]1N1CCCC1	3.5 nM	–
CCCN(CCc1ccc(Cl)c(Cl)c1)[C@@H]1CCCC[C@@H]1N1CCCC1	–	56 nM
CCCN(CCc1ccc(Cl)c(Cl)c1)[C@H]1CCCC[C@H]1N1CCCC1	–	140 nM
CN(Cc1ccc(Cl)c(Cl)c1)[C@H]1CCCC[C@H]1N1CCCC1	1.2 nM	–
CCN(CCc1ccc(Cl)c(Cl)c1)[C@H]1CCCC[C@H]1N1CCCC1	–	3.1 nM
